Reference: patent publication US9079838B2, “Ortho-phenylphenol compounds” (Dow Global Technologies LLC, priority 2011, dated 2015)

Tests used:
[1] = solubility in organic solvents at −10° C.; assay type: physicochemical; conditions: for soluble at (concentration) in AROMATIC 200: AROMATIC 200, −10° C.; for soluble at (concentration) in DMAc / soluble at (concentration) in NMP / soluble at (concentration) in dipropylene glycol dimethyl ether / soluble at (concentration) in tetralin: −10° C.
[2] = Solubility of Ex. 13 Product: 10% w/w solution in AROMATIC 200 stored in −11° C. freezer; assay type: physicochemical; conditions: 10% w/w in AROMATIC 200, −11° C. freezer, 2 weeks
Description: Solubility of Ex. 13 Product: A solution (10% w/w) in AROMATIC 200 was prepared at room temperature. The clear solution was placed in a −11° C. freezer for 2 weeks.

**Q.** Which results are given for `c1ccc(-c2ccccc2OCc2ccccc2COc2ccccc2-c2ccccc2)cc1` [1,2-bis(([1,1′-biphenyl]-2-yloxy)-methyl)benzene]?
**A.** soluble at (concentration) in AROMATIC 200 [1]: 10%; soluble at (concentration) in DMAc [1]: 10%; soluble at (concentration) in NMP [1]: 10%; soluble at (concentration) in dipropylene glycol dimethyl ether [1]: 10%; soluble at (concentration) in tetralin [1]: 10%

**Q.** Which melting point does the source give for `c1ccc(-c2ccccc2OCc2ccc(COc3ccccc3-c3ccccc3)cc2)cc1` [1,4-bis(([1,1′-biphenyl]-2-yloxy)-methyl)benzene] here?
**A.** 140 to 142 °C

**Q.** What about the “soluble at (concentration) in NMP” value [1] of the same molecule?
**A.** 10%

**Q.** For `c1ccc(-c2ccccc2OCCCCOc2ccccc2-c2ccccc2)cc1` [1,4-bis([1,1′-biphenyl]-2-yloxy)butane], which melting point is on record?
**A.** 62 to 67 °C

**Q.** What about the “soluble at (concentration) in DMAc” value [1] of the same molecule?
**A.** 10%

**Q.** And the “soluble at (concentration) in NMP” value [1]?
**A.** 10%

**Q.** What about the “soluble at (concentration) in dipropylene glycol dimethyl ether” value [1] of the same molecule?
**A.** 10%

**Q.** What does the source list for `CCCCCCCCCCCCOc1ccccc1-c1ccccc1` [2-(dodecyloxy)-1,1′-biphenyl]?
**A.** melting point: 27 to 29 °C; soluble at (concentration) in AROMATIC 200 [1]: 10%; soluble at (concentration) in dipropylene glycol dimethyl ether [1]: 10%; soluble at (concentration) in tetralin [1]: 10%

**Q.** Which melting point does the source give for `CCCCCCCCCCCCCCCCCCOc1ccccc1-c1ccccc1` [2-(octadecyloxy)-1,1′-biphenyl] here?
**A.** 42 to 45 °C

**Q.** What about the “soluble at (concentration) in tetralin” value [1] of the same molecule?
**A.** < 5%

**Q.** Which “soluble at (concentration) in tetralin” value [1] does the source give for `CCCCCCCCCCCCCCOc1ccccc1-c1ccccc1` [2-(tetradecyloxy)-1,1′-biphenyl] here?
**A.** 7.5%

**Q.** Which melting point does the source give for `c1ccc(-c2ccccc2OCc2ccc(-c3ccc(COc4ccccc4-c4ccccc4)cc3)cc2)cc1` [4,4′-bis(([1,1′-biphenyl]-2-yloxy)methyl)-1,1′-biphenyl] here?
**A.** 149 to 151 °C

**Q.** And the “soluble at (concentration) in NMP” value [1]?
**A.** 10%

**Q.** With `O=C(Oc1ccccc1-c1ccccc1)c1ccccc1` [Ex. 13 Product, [1,1′-biphenyl]-2-yl benzoate] as the molecule, how does the “crystallization from solution on cold storage” value [2] read?
**A.** No visibly detectable crystallization occurred
